Tested on: BI-1 (TMBIM6) knockout HT1080 cells
Assay: Cell proliferation of knockout cells with BIA (off-target check)
Format: cell-based
Protocol: BI-1 (TMBIM6) WT HT1080 cells, BI-1 (TMBIM6) knockout HT1080 , human breast cancer cell lines MCF7, MDA-MB-231 and SKBR3 were treated with BIA 0.5, 1.0, 2.0, 5.0, 10.0 μM and cell proliferation was confirmed. Cells with proliferation of all cell lines by 5 μM BIA treatment It was confirmed that viability was inhibited (see FIG. 57).
Cell proliferation in BI-1 (TMBIM6) knockout HT1080 cells was investigated to determine if the antiproliferative effect by BIA at this dose was an off-target effect. The cell proliferation rate and AKT phosphorylation of BI-1 (TMBIM6) knockout HT1080 cells were the same with or without BIA except for high concentrations of “20 and 30 μM” (see FIG. 57).
Cell proliferation was investigated in BI-1 (TMBIM6) knockout HT1080 cells to determine if the antiproliferative effect by BIA at the dose was a non-targeted effect. The cell proliferation rate and AKT phosphorylation of BI-1 (TMBIM6) knockout HT1080 cells were the same in the treated and untreated groups of BIA except for high concentrations of “20 and 30 μM” (see FIGS. 63A and 63B).

Structure (SMILES): Nc1ccccc1C(=O)/C=C/c1cccc([N+](=O)[O-])c1 [BIA, 2E-1-2-Aminophenyl-3-3-nitrophenyl-2-propen-1-one]
- dose-dependent cell survival (BI-1 (TMBIM6) knockout cells): did not show a decrease
- cell proliferation rate and AKT phosphorylation with or without BIA (BI-1 knockout HT1080, except for high concentrations of 20 and 30 μM): the same
